# Values of other authors in patent publication US8637551B2, “2-(1,2-benzisoxazol-3-yl)benzylamine derivatives” (Merck Sharp & Dohme B.V., priority 2009, dated 2014).
# Assays:
# [1] = test system: nerve injured myelinated DRG; settings: Yagi et al, 2000
# [2] = test system: rat, mild thermal injury model
# [3] = test system: rat (Chung) model of neuropathic pain; settings: for anti-allodynic effects in the Chung model: clinically used reference drugs
# [4] = test system: A-beta and A-delta fibres; settings: Lee et al 2005
# [5] = test system: rat CFA model of inflammatory pain
# Brennan model = settings: local administration to the sciatic nerve 4 h after surgery; Dalle & Eisenach 2005
smiles,measurement,setting,value
CCN(c1ccccc1)c1cc(=NC)n(C)c(C)n1.Cl [ZD 7288],spontaneous activity,[1],reduces spontaneous activity
same,spontaneous pain,[2],blocks spontaneous pain
same,reversal of mechanical allodynia,"[3]; intraperitoneal, Chung/von Frey, Chaplan et al 2003",dose-dependently reverses mechanical allodynia
same,firing frequency of ectopic discharges,[4],reduced the firing frequency of ectopic discharges
same,allodynia,[5],suppresses allodynia
same,mechanical allodynia,Brennan model,attenuates mechanical allodynia
CNCC[C@H](Oc1cccc2ccccc12)c1cccs1 [duloxetine],anti-allodynic effects in the Chung model,[3],anti-allodynic effects
NCC1(CC(=O)O)CCCCC1 [gabapentin],anti-allodynic effects in the Chung model,[3],anti-allodynic effects
CN1CC[C@]23c4c5ccc(O)c4O[C@H]2[C@@H](O)C=C[C@H]3[C@H]1C5 [morphine],anti-allodynic effects in the Chung model,[3],anti-allodynic effects
